Data as given in PMC10435460, “Ligand recognition and G protein coupling of the human itch receptor MRGPRX1” (Nature Communications, 2023).
Read-outs that look alike come from different tables or passages of the source. Ends that are not written are not given here.

Assays:
[1] = molecular target: T1, MRGPRX1 (Homo sapiens, UniProt Q96LB2); assay: Ligand bias factor (β value), Gi vs Gq, BAM8-22 as reference; assay type: cell-based; settings: Suppl Fig 11f-h
T1 construct: we fused a BRIL tag at the N-terminus of full-length wild-type MRGPRX1; FLAG; expressed in transfected cells; host or cells: HEK293
Protocol: Human Embryonic Kidney 293 (HEK293) cells were obtained from the Cell Resource Center of Shanghai Institute for Biological Sciences (Chinese Academy of Sciences, Shanghai, China) and cultured in DMEM with 10% FBS for functional studies. Transient transfection in the current study was performed with Lipofectamine 2000 (Invitrogen), according to the manufacturer’s instructions. For studying the peptide-induced G-protein activation through MRGPRX1, G-protein BRET probes were generated according to previous publications[13],[30],[31]. HEK293 cells were transfected with plasmids MRGPRX1 and G-protein probes. After 24 h, cells were reseeded into a 96-well plate with a density of 30,000-50,000 cells per well and incubated for an additional 24 h at 37 °C. For peptide-stimulated activity measurement, the BRET signal between Rluc8 and GFP2 was recorded after the addition of peptide ligands (final concentration:10^−10 – 10^−3 M) and coelenterazine 400a. The BRET signal was calculated as the ratio of the GFP2 emission to the Rluc8 emission. […]
are presented as the mean ± SEM (n=3). All data were analyzed by two-sided one-way ANOVA with Turkey test. […] Both CNF-Tx2 and Chloroquine were assessed for Gi signaling (f) and Gq signaling (g). The bias factor (β value) of CNF-Tx2 and Chloroquine was calculated using BAM8-22 as the reference.
R3c). The β value was calculated according to formulas. […]

[2] = molecular target: T1, MRGPRX1; assay type: cell-based; parameters: Emax: unit not given here; settings: for Δpec50: Fig 3d, CNF-Tx2 mutant peptide vs CNF-Tx2 WT; for Emax: Suppl Fig 9a, CNF-Tx2 WT and mutant peptides
Protocol: Human Embryonic Kidney 293 (HEK293) cells were obtained from the Cell Resource Center of Shanghai Institute for Biological Sciences (Chinese Academy of Sciences, Shanghai, China) and cultured in DMEM with 10% FBS for functional studies. Transient transfection in the current study was performed with Lipofectamine 2000 (Invitrogen), according to the manufacturer’s instructions. For studying the peptide-induced G-protein activation through MRGPRX1, G-protein BRET probes were generated according to previous publications[13],[30],[31]. HEK293 cells were transfected with plasmids MRGPRX1 and G-protein probes. After 24 h, cells were reseeded into a 96-well plate with a density of 30,000-50,000 cells per well and incubated for an additional 24 h at 37 °C. For peptide-stimulated activity measurement, the BRET signal between Rluc8 and GFP2 was recorded after the addition of peptide ligands (final concentration:10^−10 – 10^−3 M) and coelenterazine 400a. The BRET signal was calculated as the ratio of the GFP2 emission to the Rluc8 emission.

[3] = tested on: MRGPRX2; assay: Gαi-Gγ dissociation assay (BRET); assay type: cell-based, human; settings: Fig 1e
Excerpt: Fig. 1 Cryo-EM structure of MRGPRX1-Gi1/Gq complexes. a Cryo-EM density map of the BAM8-22-MRGPRX1-Gi1/Gq complexes and CNF-Tx2-MRGPRX1-Gi1 complex. b EM density maps of BAM8-22 in MRGPRX1-Gi1/Gq complexes and CNF-Tx2 in MRGPRX1-Gi1 complex. BAM8-22 in MRGPRX1-Gi1/Gq complexes, hot pink/cyan; CNF-Tx2, light pink; MRGPRX1, cornflower blue, salmon, and medium aquamarine from left to right; Gαi, dark orange; Gαq, yellow; Gβ, wheat; Gγ, light blue; scFv16 (single-chain variable fragment), gray. c Cut-away view of the ligand-binding pocket in the BAM8-22-MRGPRX1-Gi1/Gq, CNF-Tx2-MRGPRX1-Gi1, PAMP-12-MRGPRX2-Gi1 and KCA-CB1-Gi1 complexes. d The binding modes of the peptide agonists of MRGPRX1 compared with MRGPRX2. e The selectivity of different ligands for MRGPRX1 and MRGPRX2 was evaluated using Gαi-Gγ dissociation assay. Data are mean ± SEM of three independent experiments (n = 3). ΔBRET indicates the difference between the BRET signal recorded from cells treated with ligand and that from cells treated with vehicle.
Human Embryonic Kidney 293 (HEK293) cells were obtained from the Cell Resource Center of Shanghai Institute for Biological Sciences (Chinese Academy of Sciences, Shanghai, China) and cultured in DMEM with 10% FBS for functional studies. […] The BRET signal was calculated as the ratio of the GFP2 emission to the Rluc8 emission.

T1 sequence (Q96LB2 whole entry, the tested form may be a part): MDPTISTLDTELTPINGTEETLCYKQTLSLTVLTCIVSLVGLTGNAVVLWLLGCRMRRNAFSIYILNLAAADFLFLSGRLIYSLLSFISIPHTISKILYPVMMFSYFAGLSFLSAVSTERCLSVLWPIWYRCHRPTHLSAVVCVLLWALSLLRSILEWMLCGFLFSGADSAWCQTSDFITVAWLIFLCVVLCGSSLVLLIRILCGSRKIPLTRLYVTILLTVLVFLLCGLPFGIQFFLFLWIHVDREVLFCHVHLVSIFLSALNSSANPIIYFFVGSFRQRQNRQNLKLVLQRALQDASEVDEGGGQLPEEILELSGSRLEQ

Molecule | Δpec50 ([2]; replicate 2) | Δpec50 ([2]; replicate 3) | Emax ([2]; replicate 1) | Emax ([2]; replicate 3) | also measured
CCN(CC)CCCC(C)Nc1ccnc2cc(Cl)ccc12 (stereo not shown) [Chloroquine, chloroquine] | – | – | – | – | bias property, Gi vs Gq [1]: Gq bias ligand
HSGILLAWSGPRNRAVRI-NH2 (C-terminus assumed) [F15A] | -6.871 | -1.837 | -0.06154 | -0.06172 | –
HSGILLAWSGPRNRF-NH2 (C-terminus assumed) [ΔVRI] | -0.3933 | -0.1993 | 5.805 | -0.003279 | Emax ([2]; replicate 2): 0.1588; effect of C-terminal truncation on MRGPRX1 activity ([2]; compared to CNF-Tx2 wide-type peptide, Fig R4): almost abolished the activity of MRGPRX1
Hemoglobin b-chain(34-42): hemoglobin β-chain fragment, peptide ligand of MRGPRX1 (VVYPWTQRF; UniProt P68871 34-42, looked up, fragment) [reference compound] | – | – | – | – | potency and efficacy at MRGPRX1 ([2]; Suppl Fig 11c): reasonable potency and efficacy
bovine adrenal medulla peptide (BAM) 8-22 [BAM8-22] | – | – | – | – | recognition by MRGPRX2 [3]: cannot be recognized by MRGPRX2
